Measurements from paper PMC12446003, “Pharmacological characterization of linaprazan glurate (X842), a novel potassium-competitive acid blocker, in vitro and in vivo” (Frontiers in Pharmacology, 2025).
Values joined by “and” are separate entries in the source; they are usually repeats but may differ in a detail not shown here. Equal entries are not always repeated. Where two headings read alike, the source gives them in different places.

Assays:
Gastric H+/K+-ATPase = biological target: T1, Gastric H+/K+-ATPase (Oryctolagus cuniculus, UniProt P27112); assay: Inhibition of H+/K+-ATPase activity (Malachite Green Pi assay); assay type: biochemical, rabbit
T1 construct: Gastric H^+/K^+-ATPase was prepared from rabbit glands; from tissue; host or cells: rabbit gastric glands
Description: The H^+/K^+-ATPase inhibition reaction was performed in buffer (50 mM Tris-HCl, 5 mM magnesium chloride, 10 μM valinomycin, pH 6.5) with or without 20 mM potassium chloride (KCl), and inorganic phosphate (Pi) was detected using Malachite Green solution, made from 0.1% malachite green, 1.5% hexaammonium molybdate, and 0.2% Tween-20 in a ratio of 100:25:2 ([Skou, 1982]; [Feng et al., 2011]). Gastric H^+/K^+-ATPase was prepared from rabbit glands, as described previously ([Kondo et al., 2012]; [Arikawa et al., 2012]). The reaction occurred in a 96-well plate with a total volume of 50 µL/well, including buffer, enzyme, ATP, and drug. After 30 min at 37 °C for enzyme stability, ATP was added at 0.2 mM to start the reaction, which was optimized from the titration experiments. The reaction lasted 20 min at 37 °C, followed by the addition of Malachite Green for the colorimetric assay. The enzyme control wells contained the full enzyme system, while the buffer control wells contained only buffer to correct for background values. Absorbance was measured at 620 nm using a plate reader (SpectraMax M5). The inhibition rate was calculated using the following formula, accounting for the enzyme activity in the presence and absence of K^+: Inhibition Rate %=ODwith K+and enzyme,without drug−ODwith K+and enzyme,with drug /ODwith K+and enzyme,without drug−ODwithout K+and enzyme,without drug×100 where “OD with K^+ and enzyme, without drug” is the optical density measured at 620 nm in the presence of K^+ and enzyme, without the tested drug (enzyme control wells); “OD with K^+ and enzyme, with drug” is the optical density measured at 620 nm in the presence of K^+ and enzyme, with the tested drug; and “OD without K^+ and enzyme, without drug” is the optical density measured at 620 nm in the absence of K^+ and enzyme, without the tested drug (buffer control wells).

[1] = test system: gastric acid secretion in pylorus-ligated rats; assay: Gastric acid inhibition in pylorus-ligated rats; assay type: in vivo; conditions: oral 2 mg/kg, pylorus-ligated rats, relative to vehicle
Description: The rats were fasted overnight with ad libitum access to water. Drugs and vehicle were administered orally to rats in a blinded manner. The pylorus was ligated under ether anesthesia within 1 h after drug and vehicle administration, and the abdomen was closed by suturing. At 4 h after pyloric ligation, the rats were sacrificed by CO2 asphyxiation, and the stomach was removed ([Hori et al., 2010]). The gastric contents were collected and centrifuged at 3,000 rpm for 10 min. The volume of each sample was measured, the gastric acid concentration was determined by acid-base titration, and the total acidity was calculated.

T1 sequence (P27112 whole entry): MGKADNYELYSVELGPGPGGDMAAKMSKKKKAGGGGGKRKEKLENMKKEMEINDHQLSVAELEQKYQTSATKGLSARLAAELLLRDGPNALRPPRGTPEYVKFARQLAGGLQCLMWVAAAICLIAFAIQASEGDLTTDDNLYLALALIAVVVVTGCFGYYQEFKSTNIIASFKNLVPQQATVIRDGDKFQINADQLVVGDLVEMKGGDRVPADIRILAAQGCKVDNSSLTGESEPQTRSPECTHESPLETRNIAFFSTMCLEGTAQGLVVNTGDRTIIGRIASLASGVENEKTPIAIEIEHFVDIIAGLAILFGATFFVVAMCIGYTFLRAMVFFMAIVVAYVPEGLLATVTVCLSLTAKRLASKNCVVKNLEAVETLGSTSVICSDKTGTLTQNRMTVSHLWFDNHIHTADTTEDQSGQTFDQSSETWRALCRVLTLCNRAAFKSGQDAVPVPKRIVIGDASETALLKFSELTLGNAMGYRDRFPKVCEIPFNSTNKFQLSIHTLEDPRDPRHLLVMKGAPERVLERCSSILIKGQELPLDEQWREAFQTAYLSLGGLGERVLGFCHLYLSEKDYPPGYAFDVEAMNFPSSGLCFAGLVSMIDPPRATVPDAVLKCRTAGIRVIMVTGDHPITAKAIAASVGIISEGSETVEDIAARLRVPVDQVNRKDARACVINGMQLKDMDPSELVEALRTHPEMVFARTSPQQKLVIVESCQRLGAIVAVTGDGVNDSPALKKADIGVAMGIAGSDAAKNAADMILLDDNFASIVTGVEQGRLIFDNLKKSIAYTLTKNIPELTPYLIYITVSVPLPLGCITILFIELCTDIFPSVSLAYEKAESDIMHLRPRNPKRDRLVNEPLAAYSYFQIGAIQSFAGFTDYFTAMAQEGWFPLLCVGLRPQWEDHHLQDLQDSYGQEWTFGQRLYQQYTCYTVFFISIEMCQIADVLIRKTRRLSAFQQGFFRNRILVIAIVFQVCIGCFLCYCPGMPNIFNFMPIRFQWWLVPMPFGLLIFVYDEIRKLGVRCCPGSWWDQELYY
T1 sequence (P18597 whole entry partner): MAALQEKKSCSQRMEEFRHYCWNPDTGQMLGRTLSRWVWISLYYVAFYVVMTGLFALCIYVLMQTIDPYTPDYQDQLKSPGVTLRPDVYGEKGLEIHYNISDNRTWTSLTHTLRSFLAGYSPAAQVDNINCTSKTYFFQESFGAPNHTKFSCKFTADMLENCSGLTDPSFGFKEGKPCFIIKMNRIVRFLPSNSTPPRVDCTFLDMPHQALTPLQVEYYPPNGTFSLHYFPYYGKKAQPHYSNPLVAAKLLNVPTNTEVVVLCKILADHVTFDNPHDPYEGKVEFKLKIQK

For CNCc1cc(-c2ccccc2F)n(S(=O)(=O)c2cccnc2)c1 [vonoprazan, 1-[5-(2-fluorophenyl)-1-(pyridin-3-ylsulfonyl)-1H-pyrrol-3-yl]-N-methylmethanamine], the “Inhibitory effect on H+/K+-ATPase in the absence of K+” value (Gastric H+/K+-ATPase; absence of K+) was “No measurable inhibitory effect”, the IC50 (Gastric H+/K+-ATPase; in the presence of K+ (20 mM KCl), pH 6.5, read-out: IC50, H+/K+-ATPase inhibition) was 0.017 µM and 0.0171 µM and the IC50 (Gastric H+/K+-ATPase; in the presence of potassium ions, rabbit gastric glands, read-out: IC50 (Figure 7A)) was 0.0171 µM. For the same compound, the “Total acidity inhibitory rate (%)” value [1] was 47%.
